Results on 31 molecules are retold here after ChEMBL document CHEMBL1250502, “An alignment independent 3D QSAR study of the antiproliferative activity of 1,2,4,5-tetraoxanes” (Eur J Med Chem, 2010).

The nature of assay [1]: Cytotoxicity against human Fem-X cells. It is filed as functional, cell-based. The note with it: for IC50: Homo sapiens, Fem-X.
A further assay relates to HeLa. In words: Cytotoxicity against human HeLa cells. The assay is classed as functional, cell-based. The following applies: for IC50: Homo sapiens, HeLa.

`CCCNC(=O)CC[C@@H](C)[C@H]1CC[C@H]2[C@@H]3CC[C@@H]4C[C@]5(CC[C@]4(C)[C@H]3C[C@H](OC(C)=O)[C@]12C)OO[C@@]1(CC[C@@]2(C)[C@H](CC[C@@H]3[C@@H]2C[C@H](OC(C)=O)[C@]2(C)[C@@H]([C@H](C)CCC(=O)NCCC)CC[C@@H]32)C1)OO5`: the IC50 in assay [1] (read-out: pIC50 (converted)) was 22.9 µM; in the assay with HeLa (read-out: pIC50 (converted)) it was 33.1 µM.
Taken in the same sequence, the figures for `COC(=O)CC[C@@H](C)[C@H]1CC[C@H]2[C@@H]3CC[C@@H]4CC5(CC[C@]4(C)[C@H]3C[C@H](OC(C)=O)[C@]12C)OOC1(CCC2(CCCC2)CC1)OO5` were 42.7 µM and 10.7 µM.
`COC(=O)CC[C@@H](C)[C@H]1CC[C@H]2[C@@H]3CC[C@@H]4CC5(CC[C@]4(C)[C@H]3C[C@H](OC(C)=O)[C@]12C)OOC1(CCC2(CCCCCCC2)CC1)OO5`: the IC50 in assay [1] (read-out: pIC50 (converted)) was 51.3 µM; in the assay on HeLa (read-out: pIC50 (converted)), 10.2 µM.
The corresponding values for `CCCN(CCC)C(=O)CC[C@@H](C)[C@H]1CC[C@H]2[C@@H]3CC[C@@H]4C[C@]5(CC[C@]4(C)[C@H]3C[C@H](OC(C)=O)[C@]12C)OO[C@@]1(CC[C@@]2(C)[C@H](CC[C@@H]3[C@@H]2C[C@H](OC(C)=O)[C@]2(C)[C@@H]([C@H](C)CCC(=O)N(CCC)CCC)CC[C@@H]32)C1)OO5` are 47.9 µM and 105 µM.
The corresponding values for `CC(=O)O[C@H]1C[C@H]2[C@@H](CC[C@@H]3C[C@]4(CC[C@@]32C)OO[C@@]2(CC[C@@]3(C)[C@H](CC[C@@H]5[C@@H]3C[C@H](OC(C)=O)[C@]3(C)[C@@H]([C@H](C)CCC(=O)N6CCCCC6)CC[C@@H]53)C2)OO4)[C@@H]2CC[C@H]([C@H](C)CCC(=O)N3CCCCC3)[C@@]12C` are 79.4 µM and 89.1 µM.
Taken in the same sequence, the figures for `CC(=O)O[C@H]1C[C@H]2[C@@H](CC[C@@H]3C[C@]4(CC[C@@]32C)OO[C@@]2(CC[C@@]3(C)[C@H](CC[C@@H]5[C@@H]3C[C@H](OC(C)=O)[C@]3(C)[C@@H]([C@H](C)CCC=O)CC[C@@H]53)C2)OO4)[C@@H]2CC[C@H]([C@H](C)CCC=O)[C@@]12C` were 3.09 µM and 3.72 µM.
With `CC(=O)O[C@H]1C[C@H]2[C@@H](CC[C@@H]3C[C@]4(CC[C@@]32C)OO[C@@]2(CC[C@@]3(C)[C@H](CC[C@@H]5[C@@H]3C[C@H](OC(C)=O)[C@]3(C)[C@@H]([C@H](C)CCC(=O)O)CC[C@@H]53)C2)OO4)[C@@H]2CC[C@H]([C@H](C)CCC(=O)O)[C@@]12C`, the figures for the IC50 (in assay [1] (read-out: pIC50 (converted)); in the assay with HeLa (read-out: pIC50 (converted))) were 4.17 µM and 5.25 µM, respectively.
As for `COC(=O)CNC(=O)CC[C@@H](C)[C@H]1CC[C@H]2[C@@H]3CC[C@@H]4C[C@]5(CC[C@]4(C)[C@H]3C[C@H](OC(C)=O)[C@]12C)OO[C@]1(CC[C@@]2(C)[C@H](CC[C@@H]3[C@@H]2C[C@H](OC(C)=O)[C@]2(C)[C@@H]([C@H](C)CCC(=O)NCC(=O)OC)CC[C@@H]32)C1)OO5`, the values for the IC50 (in assay [1] (read-out: pIC50 (converted)); in the assay on HeLa (read-out: pIC50 (converted))) were 4.68 µM and 3.63 µM, respectively.
Taken in the same sequence, the figures for `CC(=O)O[C@H]1C[C@H]2[C@@H](CC[C@@H]3C[C@]4(CC[C@@]32C)OO[C@]2(CC[C@@]3(C)[C@H](CC[C@@H]5[C@@H]3C[C@H](OC(C)=O)[C@]3(C)[C@@H]([C@H](C)CCC(=O)N6CCCCC6)CC[C@@H]53)C2)OO4)[C@@H]2CC[C@H]([C@H](C)CCC(=O)N3CCCCC3)[C@@]12C` were 102 µM and 120 µM.
The corresponding values for `CC(=O)O[C@H]1C[C@H]2[C@@H](CC[C@@H]3C[C@]4(CC[C@@]32C)OO[C@]2(CC[C@@]3(C)[C@H](CC[C@@H]5[C@@H]3C[C@H](OC(C)=O)[C@]3(C)[C@@H]([C@H](C)CCC(N)=O)CC[C@@H]53)C2)OO4)[C@@H]2CC[C@H]([C@H](C)CCC(N)=O)[C@@]12C` are 6.17 µM and 6.03 µM.
Taken in the same sequence, the figures for `CCCNC(=O)CC[C@@H](C)[C@H]1CC[C@H]2[C@@H]3CC[C@@H]4C[C@]5(CC[C@]4(C)[C@H]3C[C@H](OC(C)=O)[C@]12C)OO[C@]1(CC[C@@]2(C)[C@H](CC[C@@H]3[C@@H]2C[C@H](OC(C)=O)[C@]2(C)[C@@H]([C@H](C)CCC(=O)NCCC)CC[C@@H]32)C1)OO5` were 25.7 µM and 8.32 µM.
`CC(=O)O[C@H]1C[C@H]2[C@@H](CC[C@@H]3C[C@]4(CC[C@@]32C)OO[C@]2(CC[C@@]3(C)[C@H](CC[C@@H]5[C@@H]3C[C@H](OC(C)=O)[C@]3(C)[C@@H]([C@H](C)CCC(=O)O)CC[C@@H]53)C2)OO4)[C@@H]2CC[C@H]([C@H](C)CCC(=O)O)[C@@]12C`: the IC50 in assay [1] (read-out: pIC50 (converted)) was 7.59 µM; with HeLa (read-out: pIC50 (converted)) it was 9.12 µM.
Taken in the same sequence, the figures for `COC(=O)CC[C@@H](C)[C@H]1CC[C@H]2[C@@H]3CC[C@@H]4C[C@]5(CC[C@]4(C)[C@H]3C[C@H](OC(C)=O)[C@]12C)OO[C@]1(CC[C@@]2(C)[C@H](CC[C@@H]3[C@@H]2C[C@H](OC(C)=O)[C@]2(C)[C@@H]([C@H](C)CCC(=O)OC)CC[C@@H]32)C1)OO5` were 19.5 µM and 20.4 µM.
Take `COC(=O)CC[C@@H](C)[C@H]1CC[C@H]2[C@@H]3CC[C@@H]4CC5(CC[C@]4(C)[C@H]3C[C@H](OC(C)=O)[C@]12C)OOC1(CCCCC1)OO5`: the IC50 is 52.5 µM in assay [1] (read-out: pIC50 (converted)) and 18.6 µM in the assay on HeLa (read-out: pIC50 (converted)).
The corresponding values for `CCCN(CCC)C(=O)CC[C@@H](C)[C@H]1CC[C@H]2[C@@H]3CC[C@@H]4CC5(CC[C@]4(C)[C@H]3C[C@H](OC(C)=O)[C@]12C)OOC1(CCCCC1)OO5` are 38.9 µM and 28.2 µM.
Taken in the same sequence, the figures for `CC(=O)O[C@H]1C[C@H]2[C@@H](CC[C@@H]3CC4(CC[C@@]32C)OOC2(CCCCC2)OO4)[C@@H]2CC[C@H]([C@H](C)CCC(N)=O)[C@@]12C` were 6.03 µM and 5.25 µM.
In the case of `CCCNC(=O)CC[C@@H](C)[C@H]1CC[C@H]2[C@@H]3CC[C@@H]4CC5(CC[C@]4(C)[C@H]3C[C@H](OC(C)=O)[C@]12C)OOC1(CCCCC1)OO5`, the IC50 is 13.2 µM in assay [1] (read-out: pIC50 (converted)) and 6.46 µM in the assay with HeLa (read-out: pIC50 (converted)).
The corresponding values for `CC(=O)O[C@H]1C[C@H]2[C@@H](CC[C@@H]3CC4(CC[C@@]32C)OOC2(CCCCC2)OO4)[C@@H]2CC[C@H]([C@H](C)CCC(=O)N3CCCCC3)[C@@]12C` are 9.12 µM and 7.24 µM.
Consider `CCCNC(=O)C1CCC2(CC1)OOC1(CCCCC1)OO2`, for which the results for the IC50 (in assay [1] (read-out: pIC50 (converted)); in the assay with HeLa (read-out: pIC50 (converted))) were 102 µM and 117 µM, respectively.
Taken in the same sequence, the figures for `CN(C)CCNC(=O)C1CCC2(CC1)OOC1(CCCCC1)OO2` were 120 µM and 135 µM.
Take `COC(=O)C1CCC2(CC1)OOC1(CCCCC1)OO2`: the IC50 was 72.4 µM in assay [1] (read-out: pIC50 (converted)) and 75.9 µM in the assay with HeLa (read-out: pIC50 (converted)).
The corresponding values for `O=C(O)C1CCC2(CC1)OOC1(CCCCC1)OO2` are 155 µM and 120 µM.
With `CCC1CCC2(CC1)OOC1(CC[C@@]3(C)[C@H](CC[C@@H]4[C@@H]3C[C@H](OC(C)=O)[C@]3(C)[C@@H]([C@H](C)CCC(N)=O)CC[C@@H]43)C1)OO2` (some centres undefined), the IC50 was 4.3 µM in assay [1] (read-out: IC50), 5.01 µM in assay [1] (read-out: pIC50 (converted)), 5.3 µM in the assay on HeLa (read-out: IC50) and 5.25 µM in the assay with HeLa (read-out: pIC50 (converted)).
The corresponding values for `CCC1CCC2(CC1)OOC1(CC[C@@]3(C)[C@H](CC[C@@H]4[C@@H]3C[C@H](OC(C)=O)[C@]3(C)[C@@H]([C@H](C)CCC(=O)NC)CC[C@@H]43)C1)OO2` (some centres undefined) are 8.82 µM, 6.92 µM, 6.9 µM and 4.9 µM.
Taken in the same sequence, the figures for `CCNC(=O)CC[C@@H](C)[C@H]1CC[C@H]2[C@@H]3CC[C@@H]4CC5(CC[C@]4(C)[C@H]3C[C@H](OC(C)=O)[C@]12C)OOC1(CCC(CC)CC1)OO5` (some centres undefined) were 7 µM, 6.76 µM, 6.7 µM and 6.92 µM.
The corresponding values for `CCC1CCC2(CC1)OOC1(CC[C@@]3(C)[C@H](CC[C@@H]4[C@@H]3C[C@H](OC(C)=O)[C@]3(C)[C@@H]([C@@H](C)CCC(N)=O)CC[C@@H]43)C1)OO2` (some centres undefined) are 4.5 µM, 4.27 µM, 4.9 µM and 4.07 µM.
For the molecule `CCC1CCC2(CC1)OOC1(CC[C@@]3(C)[C@H](CC[C@@H]4[C@@H]3C[C@H](OC(C)=O)[C@]3(C)[C@@H]([C@@H](C)CCC(=O)NC)CC[C@@H]43)C1)OO2` (some centres undefined), the IC50 in assay [1] (read-out: IC50) is 5 µM; in assay [1] (read-out: pIC50 (converted)) it was 4.47 µM; with HeLa (read-out: IC50) it was 6.1 µM; in the assay on HeLa (read-out: pIC50 (converted)), 6.76 µM.
With `CCNC(=O)CC[C@H](C)[C@H]1CC[C@H]2[C@@H]3CC[C@@H]4CC5(CC[C@]4(C)[C@H]3C[C@H](OC(C)=O)[C@]12C)OOC1(CCC(CC)CC1)OO5` (some centres undefined), the IC50 in assay [1] (read-out: IC50) is 6.7 µM; in assay [1] (read-out: pIC50 (converted)), 8.91 µM; in the assay with HeLa (read-out: IC50), 6.9 µM; in the assay with HeLa (read-out: pIC50 (converted)), 6.92 µM.
Take `CC(=O)O[C@H]1C[C@H]2[C@@H](CC[C@@H]3CC4(CC[C@@]32C)OOC2(CCCCC2)OO4)[C@@H]2CC[C@H]([C@H](C)CCC(=O)O)[C@@]12C`: the IC50 in assay [1] (read-out: pIC50 (converted)) is 25.1 µM; with HeLa (read-out: pIC50 (converted)) it was 6.92 µM.
In the case of `NC(=O)C1CCC2(CC1)OOC1(CCCCC1)OO2`, the IC50 in assay [1] (read-out: pIC50 (converted)) was 120 µM; in the assay on HeLa (read-out: pIC50 (converted)), 115 µM.
One may read the pIC50 as the negative decadic logarithm of the IC50, by convention in mol/L. A high value points to a small IC50. In the case of `COC(=O)CC[C@@H](C)[C@H]1CC[C@H]2[C@@H]3CC[C@@H]4CC5(CC[C@]4(C)[C@H]3C[C@H](OC(C)=O)[C@]12C)OOC1(CCC(C)CC1)OO5` (stereo in doubt; 13), the pIC50 in assay [1] (fem-x) came to 4.13; with HeLa (hela) it was 4.96.
